Assay results: ChEMBL document CHEMBL3507680, “University of Dundee, Gates Library screen for HepG2 cell viability”

Assay: Human HepG2 cell viability assay in 384 well format
Assay type: toxicity, cell-based
Set-up: dose 125 nL, time 70.5 hour; cytotoxicity at 70.5 h: concentration not given beside the values
Settings: HepG2 cells, read-out: Inhibition

Compound	cytotoxicity at 70.5 h [%]
COc1ccc(OC)c(CN(C(=O)c2ccc(C)[nH]c2=O)C2CC2)c1	3.46
CNC(=O)[C@@H]1C[C@@H](N)CN1C1CCN(Cc2ccccn2)CC1	20.3
CN1CCCC1CNC(=O)CCCOc1ccc(I)cc1 (stereo not drawn)	-0.485
CCc1ccc(C(=O)N2CCC(c3nncn3CC)CC2)o1	-6.22
Cc1cc(Cl)ccc1NCC(=O)Nc1cc(C(C)(C)C)no1	-6.23
O=S1(=O)CCCN1Cc1coc(-c2cccs2)n1	-10.6
Cc1cc(C2CCCN2C(=O)CN2CC3(CCNCC3)OC2=O)on1 (stereo not drawn)	-5.06
O=C(Cc1ccc(F)cc1)NCCNCc1cccc(O)c1	0.177
CCOC(=O)c1sc(NC(=O)CCCC(=O)O)c(C#N)c1C	-4.89
CN1CCN(C(=O)c2cc(C#N)cn2C)c2ccccc2C1	-2.54
COCCO[C@H]1CCN(C(=O)c2ccc[nH]2)[C@H]1Cc1ccncc1	-3.06
O=C1C[C@H]2[C@@H](CCN2C(=O)c2cscn2)N1Cc1cccnc1	-20.8
NC(=O)c1cnn2c1NCC(CNCCCOc1ccccc1F)C2 (stereo not drawn)	6.81
c1cc(CN2CCC(c3ccc4c(c3)OCO4)CC2)ccn1	-1.06
CN(Cc1csc(-c2cccs2)n1)C(=O)CCn1ccc(=O)[nH]c1=O	10.9
COc1ccc(C(C)NCc2cccs2)cc1Cn1cccn1 (stereo not drawn)	15.6
CC(C)Oc1cccc(CN2CCC(c3n[nH]c4ncccc34)CC2)c1	30.6
CC(C)c1nccn1CCCNC(=O)c1ccc(-c2cccnc2)nc1	-9.12
CC(C)NC1CCc2c(ccc(=O)n2CCN(C)C)C1 (stereo not drawn)	7.71
CN(C)CC1(O)CCN(C(=O)c2cnc(-c3ccccn3)nc2)C1 (stereo not drawn)	15.3
O=C(N[C@@H]1CN(c2ncccn2)[C@@H]2CCCO[C@@H]21)c1cnccn1	-1.73
Cn1nnnc1SCCNC(=O)C1CCN(C(=O)C2CCC2)CC1	-5.55
Cc1nc(CN(C)C(=O)NC(C)c2ccc3c(c2)OCCO3)cs1 (stereo not drawn)	36.4

Compound	cytotoxicity at 70.5 h [%]
CCCN1CCC2(CC1)COc1ccccc1S(=O)(=O)N(CC1CC1)C2	-4.67
O=C(Nc1ccc(F)cc1)C1CNCCN1C(=O)CC1CCCCC1 (stereo not drawn)	31.3
CC(C)N(CC(N)=O)Cc1c(Cl)ccc2cccnc12	-8.03
CCc1nn(C)c2[nH]nc(NC(=O)c3cccnc3OC)c12	-112
CSCCCNC(=O)Nc1cccc(-c2nccn2C)c1	3.57
O=C1CCCN1Cc1nnc2n1CCCN(C(=O)c1ccco1)C2	22.7
COc1cc(C)ccc1C(=O)N1C[C@@H](CN(C)CCO)[C@@H](CO)C1	4.4
O=C(N1CCCC1)N1CCC2(CCN(Cc3ccccn3)C2=O)C1 (stereo not drawn)	2.54
CN(C)C(=O)c1nc(-c2ccc(S(C)(=O)=O)cc2)c2cnccn12	-6.88
CC(=O)N1[C@H](Cn2cncn2)C[C@@H]2CN(c3ncc(F)cn3)CC[C@@H]21	-0.528
O=C(NCCC(=O)N1CCCc2ccccc21)c1c(O)cc(F)cc1F	-9.76
Cc1cc(Cl)c(C)c(S(=O)(=O)N2CCN(Cc3ccncc3)CC2)c1Cl	-25.9
c1csc(N2CCCN(c3nccn4cnnc34)CC2)n1	3.4
COc1cc2nc(NCc3cc(C)on3)nc(N)c2cc1OC	34.1
CN1CCN(CCO)C(=O)C12CCN(c1nccs1)CC2	-2.35
Cc1csc(CCNC(=O)N2CCC(n3cccc3)CC2)n1	-7.68
Cc1cccc(CN2C(=O)C[C@H]3[C@@H]2CCN3Cc2ccccn2)n1	23.7
CCc1ccc(C2COCCN2C(=O)Nc2cc(C)on2)o1 (stereo not drawn)	-3.5
Cn1cc(C(C)(O)CNC(=O)c2cc(Br)cn2C)cn1 (stereo not drawn)	7.26
O=S(=O)(c1ccccc1Cl)N1CCc2nc(C3CCNCC3)ncc2C1	-3.67
Cc1nn(Cn2ccc(C(=O)N3CCCC(C)C3)n2)c(C)c1Cl (stereo not drawn)	-5.65
COc1ccc(CN2CC[C@@H]3CN(S(C)(=O)=O)CCO[C@@H]3C2)cc1	-2.97
Cc1ccc(CN2CCc3c(C(=O)N(C)C)nn(C)c3C2)s1	-5.06

Compound	cytotoxicity at 70.5 h [%]
COC(=O)c1ccc(N2CCN(Cc3csc(C)n3)CC2)nn1	-14.7
COc1ccccc1CC(=O)N1CCC(NCc2cccnc2)CC1	24
Cc1nc(C)n(CCCNc2ncnc(C)c2C)n1	18
c1coc(-c2nc(CNCCn3cccn3)cs2)c1	-5.85
Cc1cccc(C(=O)N2CCCC2)c1NCC(=O)NC(C)(C#N)C1CC1 (stereo not drawn)	28.8
FC(F)(F)C1CCCn2c(CNCc3ccco3)nnc21 (stereo not drawn)	35.4
COc1cc(C)ccc1OCc1nc(C(=O)N2CCCNC(=O)C2)co1	-5.88
Cc1nn(C)c(N(C)C)c1CNCCCNS(C)(=O)=O	4.14
Cc1ccc(NC2(C(=O)NCCCc3c(C)n[nH]c3C)CCCC2)cc1	-5.19
COc1ccc(CC(=O)N2CCCC(c3cc(C)[nH]n3)C2)cc1 (stereo not drawn)	-3.16
CCc1nc(NCCc2nc(C)c(C)s2)c2cnn(C)c2n1	-7.53
COc1cccc(C2(CNC(C)c3nnc(C)o3)CCCC2)c1 (stereo not drawn)	-13.9
CCc1sc(C(=O)N2CCC(Nc3ccc(C)nn3)CC2)cc1C	-14.5
NC(=O)C1CCN(C(=O)c2cccc(OCc3cscn3)c2)CC1	-12.5
COc1cc(C)c(NC(=O)CCn2cccc2)cc1OC	-6.6
O=C(NC1CCCC1)c1nc2c(o1)CN(C(=O)CCO)C2	-4.91
CNC(=O)C1(CCCc2ccccn2)CN(Cc2nccn2C)C1	-9.75
Cc1nc(CN2CC[C@H]3C[C@H](c4ccncn4)O[C@@H]3C2)cs1	-3.68
CSCC(C)(O)CNc1cccc(F)c1C#N (stereo not drawn)	-15.5
CC(C)CCN(C(=O)c1cccc(NC(N)=O)c1)C1CC1	-17.2
Cc1cc(C)n(CC(=O)N2CCC(NS(C)(=O)=O)CC2)n1	-11.4
Fc1cccc(C2(CNC3CCCNC3)CCOCC2)c1 (stereo not drawn)	-1.46
Brc1cnc(NCCCOC2CCOCC2)nc1	-6.88

Compound	cytotoxicity at 70.5 h [%]
Cc1cc(CN(C)C(=O)NCc2ccccn2)no1	-1.24
CC(C)SCc1cccc(NC(=O)NCCc2nnc[nH]2)c1	11.5
CN(C)c1ccccc1CN1CCCC(N2CCCC2=O)C1 (stereo not drawn)	-8.7
Cn1cc(N2C(=O)CC[C@@H]3[C@H]2CCN3CCc2ccccc2)cn1	16.8
CCc1noc(C2CCCCN2C(=O)c2cccs2)n1 (stereo not drawn)	-4.33
CCc1nnc(Nc2cccc(C3CCN(C)CC3)n2)s1	35
Cc1ccc(N2CCN(C(=O)[C@@H]3CCC(=O)N3)CC2=O)cc1	-7.74
CC(C)S(=O)(=O)N1CCC(c2cc3n(n2)[C@@H](C(F)(F)F)C[C@@H](C)N3)C1 (stereo partly drawn)	-11
CCCn1nc2c(cc1=O)CN(CCN1CCCC1=O)CC2	-10.7
COc1ccccc1CC(=O)N1CCC(NCc2ccncc2)CC1	-1.58
Cc1cc(-c2ccc(=O)n(CCNC(=O)C3CCCCC3)n2)c(C)o1	-1.98
CCc1c(C)nc2n(c1=O)CC(C(=O)Nc1sccc1C(=O)OC)CS2 (stereo not drawn)	-6.34
N[C@H]1CN(CCCOc2ccccc2)C[C@@H]1C1CC1	-3.74
CCCn1ccnc1CN1C[C@@H](NC(C)=O)[C@H](c2ccc(C)cc2)C1	-0.633
COc1cc(C(=O)O)cc(I)c1OCC(=O)NCCc1ccccc1	-4.57
Cc1nc(-c2ccccc2)sc1CSCCS(C)(=O)=O	1.82
OC1CCN(c2ccccc2NCc2nc(-c3ccoc3)no2)CC1	36.2
CCn1c(CN(C)Cc2cnc(C)s2)nc2cc(F)ccc21	10.8
Cc1cccc(CN(Cn2nc(C)c3c(C)onc3c2=O)C2CC2)c1	-13.7
Cc1nccn1-c1cncc(C2CCCN2Cc2ccccc2)n1 (stereo not drawn)	14.2
C/C(NC(=O)c1ccco1)=C1/C(=O)C[C@@H]2[C@H]1C2(C)C	-6.66
CN(C)CCn1c2c(ccc1=O)CC(NCc1cccnc1)CC2 (stereo not drawn)	-0.247
CCN(Cc1cccc2c1OCO2)C(=O)Nc1cn[nH]c1	-5.23

Compound	cytotoxicity at 70.5 h [%]
Cc1ccc(CN2C[C@@H]3[C@@H](C(=O)N4CCCC4)CCS(=O)(=O)[C@@H]3C2)cc1	-1.09
COc1ccc(-c2n[nH]cc2CN(C)Cc2ccoc2)c(F)c1	-1.92
COc1cc(N2CC[C@@H](OC)[C@@H]2Cc2cnn(C)c2)ncn1	33.8
Cc1ccccc1-n1cnnc1SCCOCC1CCCO1 (stereo not drawn)	-5
CCn1c(=O)c2sccc2n(CC(=O)Nc2cccc(Cl)c2)c1=O	8.59
COc1cn(CC(=O)N2CCC(c3ccccc3)CC2)c(C)cc1=O	23.7
CCCn1cnnc1CN(C)C(=O)C1CCC(=O)N(C2CCCC2)C1 (stereo not drawn)	-3.21
CC(C)(C)Cc1noc2ncc(C(=O)N3CCCSCC3)cc12	11.1
CC(C)N1CCOCC2(CN(Cc3ccccn3)CCO2)C1 (stereo not drawn)	-2.31
Cc1ccc(CCN[C@@H]2c3ccccc3C3(CCNCC3)[C@H]2O)s1	-2.07
CCN1CCN(CC(O)c2ccc(F)cc2)CC1 (stereo not drawn)	-14.7
CC(=O)N1CC(=O)N(c2ccccc2)CC12CCN(Cc1cccs1)C2 (stereo not drawn)	-5.96
Cc1nn(C)c(N2CCOCC2)c1CNCC1CCN(C2CC2)C1 (stereo not drawn)	15.8
O=C(c1csnn1)N1CCCC(n2cncn2)C1 (stereo not drawn)	15.3
CC(Cc1cn(CCc2nnn[nH]2)nn1)c1ccccc1 (stereo not drawn)	-5.17
Cc1cc(C)n(CC2CCCN2C(=O)Cc2csc(C)n2)n1 (stereo not drawn)	-1.11
Cc1nnc(N2CCOC(C)C2)c(C#N)c1C (stereo not drawn)	-8.59
Cc1nc(C)c(CC(=O)NCc2ccccc2F)s1	-11.1
O=C(NCCn1cccn1)C1CCC(=O)N(CC2CCCCC2)C1 (stereo not drawn)	18
Cc1nc(Nc2cnccn2)cc(C2CCCN2C2CCOCC2)n1 (stereo not drawn)	-5.63
O=C(NCC1CCCO1)c1c(-n2cnnn2)sc2c1CCC2 (stereo not drawn)	-18.6
